Laboratory results reported in US9133237B2, “Cyclic peptides with an anti-parasitic activity” (priority 2009, dated 2015).

How the values were obtained:
[1] = test system: HeLa cancer cells (cervical cancer); format: cell-based
Experimental: (§1) The synthesized cyclic peptides were subject to tests in vitro on human fibroblasts infected by Toxoplasma gondii (Toxo), on non-infected human fibroblasts (HFF) and on HeLa cancer cells (cervical cancer) and MCF-7 cancer cells (breast cancer). Their respective efficiencies were tested at 90 nM as a preliminary test. The results are illustrated in Figure 1.

[2] = test system: MCF-7 cancer cells (breast cancer); format: cell-based
Experimental: as §1

[3] = test system: Toxoplasma gondii; format: cell-based
Experimental: as §1

[4] = test system: non-infected human fibroblasts (HFF); format: cell-based
Experimental: as §1

[5] = test system: cysts (bradyzoite form) of murine brains; test: ex vivo treatment of cysts of murine brains, re-inoculated intraperitoneally to mice; format: in vivo, Toxoplasma gondii; details: cysts treated ex vivo at 200 nM for 7 days, Figure 3
Experimental: The cyclic peptide (IV′f) was then tested on cysts (bradyzoite form) of murine brains ex vivo at 200 nM (Figure 3). The cysts after treatment for 7 days with the cyclic peptide (IV′f) were re-inoculated intraperitonally to the mice.

C[C@@H](O)C(=O)CCCCC[C@@H]1NC(=O)[C@H]2CCCN2C(=O)[C@H](Cc2ccccc2)NC(=O)C(C)(C)NC1=O [(IV′f), (3S,9S,14aR)-9-benzyl-3-((R)-7-hydroxy-6-oxooctyl)-6,6-dimethyldecahydropyrrolo[1,2-a][1,4,7,10]tetraazacyclododecine-1,4,7,10-tetraone]
EC50 [1]: 474 nM
EC90 [1]: 1010 nM
EC50 [2]: 533 nM
EC50 [3]: 28.6 nM
EC90 [3]: 79.7 nM
efficiency in preliminary test ([3]; 90 nM, Figure 1): interesting preliminary results
activity compared with apicidin ([3]; Figure 2): activity close to that of apicidin
effectiveness ([3]; Figure 2): very good effectiveness, of the order of the nanomolar
efficiency compared with pyrimethamine ([3]; Figure 2): much greater efficiency relatively to pyrimethamine
EC50 [4]: 647 nM
EC90 [4]: 4110 nM
cysts in mice after injection of treated cysts [5]: do not exhibit any cyst
